In US11655256B1, “Processes for making a solid-state form of relugolix” (Johnson Matthey Public Limited Company, priority 2020, dated 2023):

Assays:
Assay type in all cases: physicochemical
[1] = Dynamic vapor sorption (DVS)
Experimental: DVS samples are analyzed using a TA Instruments Q5000SA gravimetric water sorption analyzer. The relative humidity is adjusted between about 0-95% and the weight of the sample is continuously monitored and recorded with respect to the relative humidity and time.

[2] = Stability under high humidity at ambient temperatures; details: about 97% humidity, over a month
[3] = Stability on prolonged drying under vacuum; details: about 2 days under vacuum at about 70° C.
Experimental: Form A of the DMF solvate of relugolix is stable, i.e., it is unchanged after prolonged drying (e.g., about 2 days) under vacuum at about 70° C.

Structure (SMILES): CONC(=O)Nc1ccc(-c2sc3c(c2CN(C)C)c(=O)n(-c2ccc(OC)nn2)c(=O)n3Cc2c(F)cccc2F)cc1 [Form T of anhydrous relugolix, 1-[4-[1-[(2,6-difluorophenyl)-methyl]-5-[(dimethylamino)methyl]-3-(6-methoxypyridazin-3-yl)-2,4-dioxothieno-[2,3-d]pyrimidin-6-yl]phenyl]-3-methoxyurea]
- DVS weight % change ([1]; relative humidity (RH) levels between 0 to 90%): about 6%

Structure (SMILES): CONC(=O)Nc1ccc(-c2sc3c(c2CN(C)C)c(=O)n(-c2ccc(OC)nn2)c(=O)n3Cc2c(F)cccc2F)cc1 [Form B of anhydrous relugolix, 1-[4-[1-[(2,6-difluorophenyl)-methyl]-5-[(dimethylamino)methyl]-3-(6-methoxypyridazin-3-yl)-2,4-dioxothieno-[2,3-d]pyrimidin-6-yl]phenyl]-3-methoxyurea]
- stability at various humidity levels ([1]; evidenced by XRPD after DVS): remains stable
- DVS weight loss ([1]; relative humidity levels between about 0 to about 95%): about 7%

Structure (SMILES): CONC(=O)Nc1ccc(-c2sc3c(c2CN(C)C)c(=O)n(-c2ccc(OC)nn2)c(=O)n3Cc2c(F)cccc2F)cc1 [Form A of the DMF solvate of relugolix, 1-[4-[1-[(2,6-difluorophenyl)-methyl]-5-[(dimethylamino)methyl]-3-(6-methoxypyridazin-3-yl)-2,4-dioxothieno-[2,3-d]pyrimidin-6-yl]phenyl]-3-methoxyurea]
- stability under humidity [2]: remains unchanged
- DVS loss of mass ([1]; at about 90% RH): about 1%
- stability after prolonged drying [3]: unchanged
